Data reported in patent US9187425B2, “2,5-disubstituted arylsulfonamide CCR3 antagonists” (Axikin Pharmaceuticals, Inc., priority 2009, dated 2015).

Biological target: T1, CCR3 (UniProt P51677)
T1 sequence (P51677 1-355): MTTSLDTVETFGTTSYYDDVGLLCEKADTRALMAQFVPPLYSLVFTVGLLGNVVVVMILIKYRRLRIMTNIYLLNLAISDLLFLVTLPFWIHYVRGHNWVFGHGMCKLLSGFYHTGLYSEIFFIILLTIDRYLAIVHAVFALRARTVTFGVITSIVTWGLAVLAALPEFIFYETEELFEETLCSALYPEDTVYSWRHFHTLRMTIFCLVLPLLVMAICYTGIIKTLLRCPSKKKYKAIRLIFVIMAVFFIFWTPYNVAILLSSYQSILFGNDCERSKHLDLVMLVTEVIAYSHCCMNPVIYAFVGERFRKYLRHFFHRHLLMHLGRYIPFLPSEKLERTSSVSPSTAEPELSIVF
Assay: CCR3 Receptor Binding Assay ([125I]-labeled human eotaxin/CCL11 displacement on cells)
Conditions: 0.1 nM [125I]-labeled human eotaxin/CCL11, 60 min at room temperature, 2×10^5 cells/well
Procedure: Cells were washed once with PBS and resuspended in a binding buffer (25 mM HEPES pH 7.6, 5 mM MgCl2, 1 mM CaCl2, 0.5% BSA, 0.1% NaN3). […] of cell suspension (2×10^5 cells/well) and 0.1 nM [^125I]-labeled human eotaxin/CCL11 (2000 Ci/mmol specific activity) were mixed in a 96-well U-bottom polypropylene plate, and incubated for 60 min at room temperature for the binding reaction. The cell suspension was then transferred to a filtration plate (#MAFB, Millipore), and washed 3 times with the binding buffer containing 0.5 M NaCl, scintillant added, and the radioactivity was counted on a TopCount (Packard). For the determination of non-specific binding, the cell suspension and [^125I]-labeled human eotaxin/CCL11 were incubated in the presence of 500 nM of unlabeled human eotaxin/CCL11. See, Iino et al., “Molecular cloning and functional characterization of cynomolgus monkey (Macaca fascicularis) CC chemokine receptor, CCR3,” Cytokine 2002, 19, 276-286.
Biological results are summarized in Table 1, wherein A represents a value no greater than 50 nM, and B represents a value greater than 50 nM but no greater than 500 nM, C represents a value greater than 500 nM but no greater than 5 μM, and D represents a value greater than 5 μM.

A Ki of 0.05 to 0.5 µM was found for `N#Cc1ccc(Sc2cc(Cl)cc(Cl)c2)c(S(=O)(=O)N2CCCCC2)c1` [Compound 1] in this work.

A Ki greater than 5 µM was found for `N#Cc1ccc([S+]([O-])c2cc(Cl)cc(Cl)c2)c(S(=O)(=O)N2CCCCC2)c1` (stereo not drawn) [Compound 2] in this work.

A Ki greater than 5 µM was found for `N#Cc1ccc(S(=O)(=O)c2cc(Cl)cc(Cl)c2)c(S(=O)(=O)N2CCCCC2)c1` [Compound 3] in this work.

A Ki of no more than 0.05 µM was found for `Cc1cc(C)cc(Sc2ccc(C#N)cc2S(=O)(=O)N2CCCCC2)c1` [Compound 4] in this work.

A Ki greater than 5 µM was found for `Cc1cc(C)cc(Sc2ccc(C#N)cc2S(=O)(=O)N2CCC(C)CC2)c1` [Compound 5] in this work.

A Ki greater than 5 µM was found for `CC1CCN(S(=O)(=O)c2cc(C#N)ccc2Sc2cc(Cl)cc(Cl)c2)CC1` [Compound 6] in this work.

A Ki of no more than 0.05 µM was found for `N#Cc1ccc(Sc2cc(Cl)cc(Cl)c2)c(S(=O)(=O)N2CCC(F)CC2)c1` [Compound 7] in this work.

A Ki greater than 5 µM was found for `CC1CC(C)CN(S(=O)(=O)c2cc(C#N)ccc2Sc2cc(Cl)cc(Cl)c2)C1` (stereo not drawn) [Compound 8] in this work.

A Ki of no more than 0.05 µM was found for `N#Cc1ccc(Sc2cc(Cl)cc(Cl)c2)c(S(=O)(=O)N2CCNC(=O)C2)c1` [Compound 9] in this work.

A Ki of no more than 0.05 µM was found for `Cc1cc(C)cc(Sc2ccc(C#N)cc2S(=O)(=O)N2CCNC(=O)C2)c1` [Compound 10] in this work.

A Ki of no more than 0.05 µM was found for `N#Cc1ccc(Sc2cc(Cl)cc(Cl)c2)c(S(=O)(=O)N2CCNC(=O)C2)c1` [Compound 11] in this work.

A Ki of no more than 0.05 µM was found for `N#Cc1ccc(Sc2cc(Cl)cc(Cl)c2)c(S(=O)(=O)N2CCOCC2)c1` [Compound 12] in this work.

A Ki of no more than 0.05 µM was found for `N#Cc1ccc(Sc2cc(Cl)cc(Cl)c2)c(S(=O)(=O)N2CCSCC2)c1` [Compound 13] in this work.

A Ki of no more than 0.05 µM was found for `N#Cc1ccc(Sc2cc(Cl)cc(Cl)c2)c(S(=O)(=O)N2CCS(=O)(=O)CC2)c1` [Compound 14] in this work.

A Ki greater than 5 µM was found for `Cc1cc(C)cc(Sc2ccc(C#N)cc2S(=O)(=O)N2CCSCC2)c1` [Compound 16] in this work.

A Ki of no more than 0.05 µM was found for `Cc1cc(C)cc(Sc2ccc(C#N)cc2S(=O)(=O)N2CCS(=O)(=O)CC2)c1` [Compound 17] in this work.

A Ki of 0.5 to 5 µM was found for `N#Cc1ccc(Sc2cc(C(F)(F)F)cc(C(F)(F)F)c2)c(S(=O)(=O)N2CCOCC2)c1` [Compound 18] in this work.

A Ki greater than 5 µM was found for `N#Cc1ccc(Sc2cc(C(F)(F)F)cc(C(F)(F)F)c2)c(S(=O)(=O)N2CCSCC2)c1` [Compound 19] in this work.

A Ki greater than 5 µM was found for `N#Cc1ccc(Sc2cc(C(F)(F)F)cc(C(F)(F)F)c2)c(S(=O)(=O)N2CCS(=O)(=O)CC2)c1` [Compound 20] in this work.

A Ki of 0.05 to 0.5 µM was found for `N#Cc1ccc(Sc2cc(Cl)cc(Cl)c2)c(S(=O)(=O)N2CCSCC2)c1` [Compound 21] in this work.

A Ki of no more than 0.05 µM was found for `N#Cc1ccc(Sc2cc(Cl)cc(Cl)c2)c(S(=O)(=O)N2CCS(=O)(=O)CC2)c1` [Compound 23] in this work.

A Ki greater than 5 µM was found for `O=[N+]([O-])c1ccc(Sc2cc(Cl)cc(Cl)c2)c(S(=O)(=O)N2CCSCC2)c1` [Compound 24] in this work.

A Ki greater than 5 µM was found for `Cc1cc(C)cc(Sc2ccc([N+](=O)[O-])cc2S(=O)(=O)N2CCSCC2)c1` [Compound 25] in this work.

A Ki greater than 5 µM was found for `Cc1cc(C)cc(Sc2ccc(C#N)cc2S(=O)(=O)N2CCS(=O)(=O)CC2)c1` [Compound 26] in this work.

A Ki of no more than 0.05 µM was found for `CC1CN(S(=O)(=O)c2cc(C#N)ccc2Sc2cc(Cl)cc(Cl)c2)CCN1` (stereo not drawn) [Compound 27] in this work.

A Ki of no more than 0.05 µM was found for `CC1CN(S(=O)(=O)c2cc(C#N)ccc2Sc2cc(Cl)cc(Cl)c2)CC(C)N1` (stereo not drawn) [Compound 28] in this work.

A Ki of no more than 0.05 µM was found for `CC1CN(S(=O)(=O)c2cc(C#N)ccc2Sc2cc(Cl)cc(Cl)c2)CC(C)N1` (stereo not drawn) [Compound 29] in this work.

A Ki of no more than 0.05 µM was found for `O=[N+]([O-])c1ccc(Sc2cc(Cl)cc(Cl)c2)c(S(=O)(=O)N2CCS(=O)(=O)CC2)c1` [Compound 30] in this work.

A Ki of no more than 0.05 µM was found for `CC(C)N1CCN(S(=O)(=O)c2cc(C#N)ccc2Sc2cc(Cl)cc(Cl)c2)CC1=O` [Compound 31] in this work.

A Ki of no more than 0.05 µM was found for `COC(=O)C1CN(S(=O)(=O)c2cc(C#N)ccc2Sc2cc(Cl)cc(Cl)c2)CCN1` (stereo not drawn) [Compound 32] in this work.
